Results from patent US11666640B2, “Glucose oxidase compositions as a neonate anticonvulsant” (PENN STATE RESEARCH FOUNDATION, priority 2018, dated 2023).
“Also recorded” adds a separate entry of the source.

How the values were obtained:
[1] = system: KA induced neonatal seizure; assay: KA-induced neonatal seizure, in vivo EEG recording; parameters: species or system rat; conditions: for reduction of relative EEG power: last 30 min of a 2-hr recording period after KA injection, neonatal
Method: For example, neonatal rats were administered gluconate to determine the effect on in vivo epileptic seizures in neonatal and adult animals. […] FIGS. 14A and 14B; Dzhala et al., “NKCC1 transporter facilitates seizures in the developing brain” Nature Medicine 11:1205-1213 (2005). […] FIGS. 14C and 14D.
To test the in vivo anti-epilepsy effects of gluconate in neonatal and adult rodents, P8-12 Sprague-Dawley rats or 2-month old male C57BL/6 mice were deeply anesthetized with pentobarbital sodium (50 mg/kg for neonatal rat and 100 mg/kg for adult mice, intraperitoneal injection). Two stainless steel screws (1 mm in diameter) were inserted in the skull above the cortex as EEG recording electrodes, one ground electrode as well as one reference electrode were located +1.8 mm anterior to bregma, ±0.5 mm lateral to the midline, and 1 mm below the cortical surface. All electrodes were attached to a micro-connector and fixed onto the skull with dental cement. After surgery, neonatal rats were returned to their mothers and allowed to recover for 2 days prior to subsequent EEG recording. The adult mice were single housed in order to prevent damage of the implanted electrodes and allowed to recover at least 5 days before EEG recording.
The baseline of EEG was recorded for 0.5-1 hr to allow the animal to adapt to the environment. Kainic acid (2 mg/kg) was administered intraperitoneally (i.p.) for neonatal epilepsy induction. D-gluconic acid sodium salt (2 g/kg) or 0.9% saline was injected i.p. 10 min after KA administration. Pentylenetetrazol (PTZ) was administered intraperitoneally for inducing a stable epileptic burst activity in adult mice, and D-gluconic acid sodium salt (1 g/kg and 2 g/kg) or 0.9% saline was injected i.p. 10 min before PTZ administration. Epileptiform activity was monitored for 1 hr after PTZ injection. Qian et al., “Epileptiform response of CA1 neurones to convulsant stimulation by cyclothiazide, kainic acid and pentylenetetrazol in anaesthetized rats” Seizure 20:312-319 (2011). After the experiment, animals were injected with diazepam to protect the animals from recurrent epilepsy.
Power was calculated in 1-min time windows by integrating the power of dominant frequency bands from 1 to 100 Hz (EEG band).

[2] = system: cultured cortical neurons; assay: Epileptiform burst activity in cultured cortical neurons (whole-cell patch-clamp); format: cell-based, mouse; conditions: CTZ 10 μM, 24 hrs, blocker 100 μM
Method: Mouse cortical neurons were prepared from newborn C57BL/6 mice as previously described. Qi et al., “Cyclothiazide induces robust epileptiform activity in rat hippocampal neurons both in vitro and in vivo” The Journal Of Physiology 571:605-618 (2006). Briefly, the newborn mouse cerebral cortices were dissected out in ice-cold HEPES-buffered saline solution, washed and digested with 0.05% trypsin-EDTA at 37° C. for 20 min. After deactivation of trypsin with serum-containing medium, cells were centrifuged, resuspended, and seeded on a monolayer of cortical astrocytes at a density of 10,000 cells/cm^2 in 24-well plates. The neuronal culture medium contained MEM (500 ml, Invitrogen), 5% fetal bovine serum (Atlanta Biologicals), 10 ml B-27 supplement (Invitrogen), 100 mg NaHCO3, 2 mM Glutamax (Invitrogen), and 25 units/ml penicillin & streptomycin. AraC (4 μM, Sigma) was added to inhibit the excessive proliferation of astrocytes. Cell cultures were maintained in a 5% CO2-humidified incubator at 37° C. for 14-21 days.
The cultured neurons were placed in the recording chamber with continuous perfusion of the bath solution consisting of (mM): 128 NaCl, 10 Glucose, 25 HEPES, 5 KCl, 2 CaCl2, 1 MgSO4, pH 7.3 adjusted with NaOH, and osmolarity ˜300 mOsm. For recording spontaneous firing under current clamp mode, pipettes were filled with an internal solution containing (in mM): 125 K-gluconate, 5 Na-phosphocreatine, 5 EGTA, 10 KCl, 10 HEPES, 4 Mg-ATP, 0.3 Na-GTP, 280-290 mOsm, pH 7.3 adjusted with KOH. Epileptiform activity in cultured neurons was induced either by 10 μM CTZ for 24 h, or 1 μM KA for 2 h, or 50 μM 4-AP for 2 h. The burst activity was defined as previously described. Qi et al., “Cyclothiazide induces robust epileptiform activity in rat hippocampal neurons both in vitro and in vivo” The Journal Of Physiology 571:605-618 (2006). In brief, at least five consecutive action potentials overlaying on top of the large depolarization shift (≥10 mV depolarization and ≥300 ms in duration).

Cl− channels = assay: Cl− current recording in cultured cortical neurons; format: cell-based, mouse; conditions: blocker 100 μM
hippocampal slices = assay: Field potential recording of epileptiform activity in hippocampal slices (CA3 pyramidal layer); format: cell-based, mouse; conditions: 100 μm (FIG. 10)
CLC-3 Cl− channels = target: T1, CLC-3 Cl− channels (Mus musculus, UniProt P51791); assay: Voltage-dependent outward rectifying Cl− currents in CA3 pyramidal neurons of hippocampal slices; format: cell-based; conditions: P8-12 neonatal mice; 20 mM NaGcA, 10 mM Mg(GcA)2, 20 mM gluconic acid
T1 construct: CA3 pyramidal neurons of hippocampal slices from neonatal mice; from tissue; host or cells: acute hippocampal slices (CA3 pyramidal neurons), C57BL/6 mice
T1 sequence (P51791 1-818): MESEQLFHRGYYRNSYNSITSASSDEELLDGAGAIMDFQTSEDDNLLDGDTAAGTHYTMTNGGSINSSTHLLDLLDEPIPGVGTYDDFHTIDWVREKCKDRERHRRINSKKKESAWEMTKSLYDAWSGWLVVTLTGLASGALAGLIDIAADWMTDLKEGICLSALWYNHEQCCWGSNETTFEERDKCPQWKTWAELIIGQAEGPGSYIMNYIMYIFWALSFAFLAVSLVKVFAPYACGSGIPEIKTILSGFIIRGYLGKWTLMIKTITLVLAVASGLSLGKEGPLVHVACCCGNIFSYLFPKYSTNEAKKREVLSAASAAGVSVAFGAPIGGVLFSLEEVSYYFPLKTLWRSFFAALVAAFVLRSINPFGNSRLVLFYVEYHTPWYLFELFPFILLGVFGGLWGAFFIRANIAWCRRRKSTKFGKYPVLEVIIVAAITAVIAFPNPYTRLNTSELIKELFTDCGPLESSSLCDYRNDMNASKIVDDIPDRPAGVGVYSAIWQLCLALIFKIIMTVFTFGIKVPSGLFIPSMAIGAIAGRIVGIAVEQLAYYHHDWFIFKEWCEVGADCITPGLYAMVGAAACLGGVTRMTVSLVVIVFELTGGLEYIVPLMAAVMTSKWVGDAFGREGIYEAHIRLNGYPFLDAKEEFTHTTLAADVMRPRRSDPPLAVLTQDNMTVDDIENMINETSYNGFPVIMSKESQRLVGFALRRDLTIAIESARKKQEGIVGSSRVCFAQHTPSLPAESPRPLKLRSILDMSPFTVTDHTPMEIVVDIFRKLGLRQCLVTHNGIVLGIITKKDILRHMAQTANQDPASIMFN

[3] = system: GABAA-R reversal potential (EGABA); assay: Gramicidin-perforated whole-cell recording of GABAA-R reversal potential (EGABA) in CA3 pyramidal neurons; format: cell-based, mouse; conditions: for positive EGABA shift induced by 0 Mg2+ aCSF: neonatal CA3 neurons; for EGABA in 0 Mg2+ aCSF: neonatal P8-P9, 0 Mg2+ aCSF; for EGABA in 0 Mg2+ aCSF / EGABA in normal aCSF: bumetanide 10 μM, VU0240551 10 μM, NaGcA 20 mM; for EGABA in normal aCSF: neonatal P8-P9
Method: To further test this idea, the GABAA-R reversal potential (EGABA), which governs GABA excitatory versus inhibitory function, was directly measured using gramicidin-perforated whole-cell recordings in neonatal mouse brain slices (e.g., P8-P9). As expected, epileptiform activity induced a large depolarizing shift in EGABA after treating hippocampal slices with 0 Mg^2+ aCSF for 1 h (aCSF: −59.2±2.0 mV, n=13; 0 Mg^2+: −48.2±1.1 mV, n=10). FIG. 16D. Treatment with bumetanide (Bum, 10 μM), a specific blocker for NKCC1 at low concentrations, induced a hyperpolarizing shift in EGABA (blue line) as compared to a control EGABA (dashed line). […]. […] Kaila et al., “Cation-chloride cotransporters in neuronal development, plasticity and disease” Nature Reviews. Neuroscience 15:637-654 (2014); Dzhala et al., “NKCC1 transporter facilitates seizures in the developing brain” Nature Medicine 11:1205-1213 (2005); and Loscher et al., “Cation-chloride cotransporters NKCC1 and KCC2 as potential targets for novel antiepileptic and antiepileptogenic treatments” Neuropharmacology 69:62-74 (2013). […] FIG. 16E, yellow line; Bum, −68.0±1.7 mV (n=9); 0 Mg^2++Bum, −50.2±1.4 mV (n=9); (p<0.002).

[4] = system: GABA-induced neuronal activity; assay: Cell-attached recording of spike firing elicited by isoguvacine in CA3 pyramidal neurons; format: cell-based, mouse; conditions: P8-9, isoguvacine 10 μM, 30 s
Method: Besides EGABA, the effects of different drugs on GABA-induced neuronal activity during epileptogenesis were investigated in neonatal animals (e.g., P8-9). To accurately measure GABA-induced neuronal activity, cell-attached recordings monitored spike firing elicited by local application of the GABAA-R agonist isoguvacine (10 μM, 30 s). Tyzio et al., “Maternal oxytocin triggers a transient inhibitory switch in GABA signaling in the fetal brain during delivery” Science 314:1788-1792 (2006). […] FIG. 16K, control, (n=32). […] FIG. 16K, 0 Mg^2+ (n=19). […] FIG. 16K; 0 Mg^2++Bum (n=19); and 0 Mg^2++VU (n=21). […] FIG. 16K; 0 Mg^2++NaGcA (n=18).

neonatal seizures = conditions: infant babies, clinical trial (Pressler et al.); cited from earlier work

For CCC1(c2ccccc2)C(=O)NC(=O)NC1=O [phenobarbital, reference compound], the “reduction of relative EEG power” value [1] was 35.5%.
In the case of O=C(O)c1cc([N+](=O)[O-])ccc1NCCCc1ccccc1 [NPPB, 5-Nitro-2-(3-phenylpropylamino) benzoic acid, reference compound], the “epileptiform activity induced by CTZ” value [2] is reported as “significantly inhibited; also recorded: potently inhibited”, the “Cl− currents (inhibition by classic Cl− channel blockers)” value (Cl− channels) is reported as “significantly suppressed; also recorded: inhibited” and the “epileptic activity in neonatal hippocampal slices (other Cl− channel blockers)” value (hippocampal slices) is reported as “inhibit neonatal seizures”.
In the case of magnesium gluconate, the “Cl− current inhibition by gluconic acid with various counter ions” value (CLC-3 Cl− channels) is reported as “equivalent Cl− current inhibition”.
In the case of O=S(=O)([O-])c1cc(N=C=S)ccc1C=Cc1ccc(N=C=S)cc1S(=O)(=O)[O-].[Na+].[Na+] [DIDS, 4,4′-Diisothiocyanato-2,2′-stilbenedisulfonic acid disodium salt, reference compound], the “epileptiform activity induced by CTZ” value ([2]; disodium salt) is reported as “significantly inhibited; also recorded: potently inhibited” and the “Cl− currents (inhibition by classic Cl− channel blockers)” value (Cl− channels; disodium salt) is reported as “significantly suppressed; also recorded: persistent inhibition”.
For Cc1csc(NC(=O)CSc2ccc(-c3ccccc3)nn2)n1 [VU0240551], the “positive EGABA shift induced by 0 Mg2+ aCSF” value [3] was “no effect”, the “EGABA in 0 Mg2+ aCSF” value [3] was −48.9±1.3 mV and the “EGABA in normal aCSF” value [3] was −60.8±1.9 mV. The “spike activity elicited by isoguvacine after 0 Mg2+ treatment” value [4] was “did not change”.
With CCCCNc1cc(C(=O)O)cc(S(N)(=O)=O)c1Oc1ccccc1 [bumetanide] the “epileptic seizure (burst) activity in EEG” value ([1]; P10-12, KA 2 mg/kg i.p., drug i.p. 10 min after KA: NaGcA 2 g/kg, phenobarbital 25 mg/kg, bumetanide 2 mg/kg) was “not as potent as gluconate”, the “reduction of relative EEG power” value [1] was 54.3% and the “positive EGABA shift induced by 0 Mg2+ aCSF” value [3] was “did not abolish”. The “EGABA in 0 Mg2+ aCSF” value [3] was −50.2±1.4 mV, the “EGABA in normal aCSF” value [3] was −68.0±1.7 mV and the “spike activity elicited by isoguvacine after 0 Mg2+ treatment” value [4] was “did not change”. For the same compound, the “effect in treating neonatal seizure (clinical trial)” value (neonatal seizures) was “very limited effect” and the “side effects (clinical trial)” value (neonatal seizures) was “severe side effects”.
For O=C(O)[C@H](O)[C@@H](O)[C@H](O)[C@H](O)CO [gluconic acid], the “Cl− current inhibition by gluconic acid with various counter ions” value (CLC-3 Cl− channels) was “equivalent Cl− current inhibition”.
For O=C(O)c1cccnc1Nc1cccc(C(F)(F)F)c1 [NFA, niflumic acid, reference compound], the “epileptic activity in neonatal hippocampal slices (other Cl− channel blockers)” value (hippocampal slices) was “inhibit neonatal seizures”.
